Laboratory results published in the supplement of paper PMC9663587.

How the values were obtained:
[1] = compound: T1, CN1CC[C@H](c2c(O)cc(O)c3c(=O)cc(-c4ccccc4Cl)oc23)[C@H](O)C1 [Flavopiridol]
[2] = compound: NC1(C(=O)N[C@@H](CCO)c2ccc(Cl)cc2)CCN(c2nc[nH]c3nccc2-3)CC1 [AZD5363]
[3] = compound: CC(=O)O[C@H]1C(=O)[C@@]2(C)[C@H]([C@H](OC(=O)c3ccccc3)[C@]3(O)C[C@H](OC(=O)[C@H](O)[C@@H](NC(=O)c4ccccc4)c4ccccc4)C(C)=C1C3(C)C)[C@]1(OC(C)=O)CO[C@@H]1C[C@@H]2O [Paclitaxel]
[4] = compound: CO[C@@H](C)Cn1c(=O)n(C)c2cnc3ccc(-c4cncc(C(C)(C)O)c4)cc3c21
[5] = compound: CC(C)Nc1cc(-c2c[nH]c(C(=O)N[C@H](CO)c3cccc(Cl)c3)c2)c(Cl)cn1 [BVD523]
[6] = compound: C1=CC2=C(C=CC(=C2)C=C3C(=O)NC(=NCC4=CC=CS4)S3)N=C1 [R0-3306]
[7] = compound: CCC1=CN=CN=C1N2CCN(CC2)CC3=NC4=C(N3)C=C(C=C4)C(F)(F)F
[8] = compound: CCOc1cc2ncc(C#N)c(Nc3ccc(OCc4ccccn4)c(Cl)c3)c2cc1NC(=O)/C=C/CN(C)C [Neratinib/HKI272]
[9] = compound: T2, CC(=O)c1c(C)c2cnc(Nc3ccc(N4CCN(CCOCCOCCOCCNC(=O)COc5cccc6c5C(=O)N(C5CCC(=O)NC5=O)C6=O)CC4)cn3)nc2n(C2CCCC2)c1=O [BSJ-03-123]
[10] = compound: T1, Flavopiridol; experiment: GR value, 72 h; higher = faster growth (1 = untreated, <0 = killing);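 note: breast cancer and non-malignant breast epithelial lines, nine half-log doses, viable cells counted by Hoechst and LIVE/DEAD dye imaging versus time-zero plates and DMSO controls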
[11] = compound: CCN1CCN(Cc2ccc(Nc3ncc(F)c(-c4cc(F)c5nc(C)n(C(C)C)c5c4)n3)nc2)CC1; experiment: as above
[12] = compound: C=CC(=O)Nc1ccc(C(=O)Nc2[nH]nc3c2CN(C(=O)N[C@H](CN(C)C)c2ccccc2)C3(C)C)cc1 [YKL-5-124]; experiment: as above
[13] = compound: CN(C)C/C=C/C(=O)Nc1ccc(C(=O)N2CCC[C@@H](Nc3ncc(Cl)c(-c4c[nH]c5ccccc45)n3)C2)cc1 [THZ531]; experiment: as above
[14] = compound: CCc1cnn2c(NCc3ccc[n+]([O-])c3)cc(N3CCCC[C@H]3CCO)nc12; experiment: as above
[15] = compound: CN(C)C(=O)c1cc2cnc(Nc3ccc(N4CCNCC4)cn3)nc2n1C1CCCC1 [LEE011/Ribociclib]; experiment: as above
[16] = compound: T2, BSJ-03-123; experiment: as above
[17] = compound: CN(C)C/C=C/C(=O)Nc1ccc(C(=O)Nc2cccc(Nc3ncc(Cl)c(-c4c[nH]c5ccccc45)n3)c2)cc1 [THZ1]; experiment: as above
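Throughout, for GR50, 72 h: breast cancer and non-malignant breast epithelial cell lines, Deep Dye Drop or Dye Drop imaging, nine half-log doses, GR normalized to time-zero plates and DMSO-only controls.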

Cell Line: MCF12A
- GR50, 72 h [1]: 0.38 µM
- GR50, 72 h [2]: > 10 µM
- GR50, 72 h [3]: 0.00577 µM
- GR50, 72 h [4]: 0.167 µM
- GR50, 72 h [5]: 5.73 µM
- GR50, 72 h [6]: 9.7 µM
- GR50, 72 h [7]: > 10 µM
- GR50, 72 h [8]: 0.422 µM
- GR50, 72 h [9]: 5.35 µM
- GR value ([10]; 0.0001 µM): 1.04 GR
- GR value ([10]; 0.0003162 µM): 0.977 GR
- GR value ([10]; 0.001 µM): 0.895 GR
- GR value ([10]; 0.003162 µM): 0.982 GR
- GR value ([10]; 0.01 µM): 0.961 GR
- GR value ([10]; 0.03162 µM): 0.949 GR
- GR value ([10]; 0.1 µM): 0.856 GR
- GR value ([10]; 0.3162 µM): 0.621 GR
- GR value ([10]; 1 µM): -0.121 GR
- GR value ([11]; 0.001 µM): 0.987 GR
- GR value ([11]; 0.003162 µM): 0.945 GR
- GR value ([11]; 0.01 µM): 0.955 GR
- GR value ([11]; 0.03162 µM): 0.943 GR
- GR value ([11]; 0.1 µM): 0.872 GR
- GR value ([11]; 0.3162 µM): 0.822 GR
- GR value ([11]; 1 µM): 0.727 GR
- GR value ([11]; 3.162 µM): 0.616 GR
- GR value ([11]; 10 µM): 0.386 GR
- GR value ([12]; 0.001 µM): 0.573 GR
- GR value ([12]; 0.003162 µM): 0.316 GR
- GR value ([12]; 0.01 µM): 0.235 GR
- GR value ([12]; 0.03162 µM): 0.17 GR
- GR value ([12]; 0.1 µM): 0.135 GR
- GR value ([12]; 0.3162 µM): 0.153 GR
- GR value ([12]; 1 µM): 0.131 GR
- GR value ([12]; 3.162 µM): 0.107 GR
- GR value ([12]; 10 µM): 0.0273 GR
- GR value ([13]; 0.0001 µM): 0.942 GR
- GR value ([13]; 0.0003162 µM): 1.02 GR
- GR value ([13]; 0.001 µM): 1 GR
- GR value ([13]; 0.003162 µM): 0.929 GR
- GR value ([13]; 0.01 µM): 1.01 GR
- GR value ([13]; 0.03162 µM): 0.967 GR
- GR value ([13]; 0.1 µM): 1 GR
- GR value ([13]; 0.3162 µM): 0.894 GR
- GR value ([13]; 1 µM): -0.0356 GR
- GR value ([14]; 0.0001 µM): 1.03 GR
- GR value ([14]; 0.0003162 µM): 0.99 GR
- GR value ([14]; 0.001 µM): 1.03 GR
- GR value ([14]; 0.003162 µM): 1.03 GR
- GR value ([14]; 0.01 µM): 1.08 GR
- GR value ([14]; 0.03162 µM): 0.685 GR
- GR value ([14]; 0.1 µM): -0.289 GR
- GR value ([14]; 1 µM): -0.327 GR
- GR value ([15]; 0.001 µM): 0.967 GR
- GR value ([15]; 0.003162 µM): 0.953 GR
- GR value ([15]; 0.01 µM): 0.948 GR
- GR value ([15]; 0.03162 µM): 0.927 GR
- GR value ([15]; 0.1 µM): 0.984 GR
- GR value ([15]; 0.3162 µM): 0.897 GR
- GR value ([15]; 1 µM): 0.867 GR
- GR value ([15]; 3.162 µM): 0.914 GR
- GR value ([15]; 10 µM): 0.792 GR
- GR value ([16]; 0.001 µM): 0.975 GR
- GR value ([16]; 0.003162 µM): 0.912 GR
- GR value ([16]; 0.01 µM): 0.971 GR
- GR value ([16]; 0.03162 µM): 0.952 GR
- GR value ([16]; 0.1 µM): 0.98 GR
- GR value ([16]; 0.3162 µM): 0.942 GR
- GR value ([16]; 1 µM): 0.883 GR
- GR value ([16]; 3.162 µM): 0.753 GR
- GR value ([16]; 10 µM): 0.126 GR
- GR value ([17]; 0.0001 µM): 0.997 GR
- GR value ([17]; 0.0003162 µM): 0.989 GR
- GR value ([17]; 0.001 µM): 1 GR
- GR value ([17]; 0.003162 µM): 0.958 GR
- GR value ([17]; 0.01 µM): 0.984 GR
- GR value ([17]; 0.03162 µM): 0.851 GR
- GR value ([17]; 0.1 µM): 0.569 GR
- GR value ([17]; 0.3162 µM): 0.338 GR
- GR value ([17]; 1 µM): -0.312 GR

Cell Line: MGH312
- GR50, 72 h [1]: 0.0997 µM
- GR50, 72 h [2]: < 0.001 µM
- GR50, 72 h [3]: 0.00266 µM
- GR50, 72 h [4]: < 0.001 µM
- GR50, 72 h [5]: > 10 µM
- GR50, 72 h [6]: 5.42 µM
- GR50, 72 h [7]: 4.84 µM
- GR50, 72 h [8]: 0.168 µM
- GR50, 72 h [9]: 4.41 µM
- GR value ([10]; 0.0001 µM): 1.11 GR
- GR value ([10]; 0.0003162 µM): 1.12 GR
- GR value ([10]; 0.001 µM): 0.95 GR
- GR value ([10]; 0.003162 µM): 0.74 GR
- GR value ([10]; 0.01 µM): 0.921 GR
- GR value ([10]; 0.03162 µM): 0.947 GR
- GR value ([10]; 0.1 µM): 0.503 GR
- GR value ([10]; 0.3162 µM): -0.521 GR
- GR value ([10]; 1 µM): -0.945 GR
- GR value ([11]; 0.001 µM): 1.06 GR
- GR value ([11]; 0.003162 µM): 1.17 GR
- GR value ([11]; 0.01 µM): 1.15 GR
- GR value ([11]; 0.03162 µM): 1.12 GR
- GR value ([11]; 0.1 µM): 0.975 GR
- GR value ([11]; 0.3162 µM): 1.03 GR
- GR value ([11]; 1 µM): 0.836 GR
- GR value ([11]; 3.162 µM): 0.308 GR
- GR value ([11]; 10 µM): -0.466 GR
- GR value ([12]; 0.001 µM): 0.624 GR
- GR value ([12]; 0.003162 µM): 0.384 GR
- GR value ([12]; 0.01 µM): 0.182 GR
- GR value ([12]; 0.03162 µM): 0.299 GR
- GR value ([12]; 0.1 µM): 0.104 GR
- GR value ([12]; 0.3162 µM): 0.0051 GR
- GR value ([12]; 1 µM): -0.083 GR
- GR value ([12]; 3.162 µM): -0.264 GR
- GR value ([12]; 10 µM): -0.924 GR
- GR value ([13]; 0.0001 µM): 1.09 GR
- GR value ([13]; 0.0003162 µM): 1.17 GR
- GR value ([13]; 0.001 µM): 0.736 GR
- GR value ([13]; 0.003162 µM): 1.06 GR
- GR value ([13]; 0.01 µM): 1.32 GR
- GR value ([13]; 0.03162 µM): 0.538 GR
- GR value ([13]; 0.1 µM): -0.928 GR
- GR value ([13]; 0.3162 µM): -0.947 GR
- GR value ([13]; 1 µM): -0.909 GR
- GR value ([14]; 0.0001 µM): 0.917 GR
- GR value ([14]; 0.0003162 µM): 1.1 GR
- GR value ([14]; 0.001 µM): 1.09 GR
- GR value ([14]; 0.003162 µM): 1.04 GR
- GR value ([14]; 0.01 µM): 0.584 GR
- GR value ([14]; 0.03162 µM): -0.846 GR
- GR value ([14]; 0.1 µM): -0.927 GR
- GR value ([14]; 0.3162 µM): -0.951 GR
- GR value ([14]; 1 µM): -0.949 GR
- GR value ([15]; 0.001 µM): 1.21 GR
- GR value ([15]; 0.003162 µM): 1.13 GR
- GR value ([15]; 0.01 µM): 1.08 GR
- GR value ([15]; 0.03162 µM): 1.21 GR
- GR value ([15]; 0.1 µM): 0.945 GR
- GR value ([15]; 0.3162 µM): 0.964 GR
- GR value ([15]; 1 µM): 0.894 GR
- GR value ([15]; 3.162 µM): 0.89 GR
- GR value ([15]; 10 µM): 1.33 GR
- GR value ([16]; 0.001 µM): 1.11 GR
- GR value ([16]; 0.003162 µM): 1.25 GR
- GR value ([16]; 0.01 µM): 1.02 GR
- GR value ([16]; 0.03162 µM): 1.22 GR
- GR value ([16]; 0.1 µM): 1.12 GR
- GR value ([16]; 0.3162 µM): 0.909 GR
- GR value ([16]; 1 µM): 0.827 GR
- GR value ([16]; 3.162 µM): 0.933 GR
- GR value ([16]; 10 µM): -0.91 GR
- GR value ([17]; 0.0001 µM): 1.22 GR
- GR value ([17]; 0.0003162 µM): 0.923 GR
- GR value ([17]; 0.001 µM): 0.962 GR
- GR value ([17]; 0.003162 µM): 0.662 GR
- GR value ([17]; 0.01 µM): 0.287 GR
- GR value ([17]; 0.03162 µM): -0.892 GR
- GR value ([17]; 0.1 µM): -0.905 GR
- GR value ([17]; 0.3162 µM): -0.92 GR
- GR value ([17]; 1 µM): -0.934 GR
